Experimental data: patent US20180066241A1, “PRO-APOPTOTIC SET AND PP2A PEPTIDES” (Universite Pierre Et Marie Curie (Paris 6), priority 2015, published 2018)
Blank lines part the entries; values can stand above or below the substance they belong to.

Columns and labels:
SET protein = SET protein (Homo sapiens, UniProt Q01105); assay: Binding assay on cellulose-bound overlapping PP2Ac peptides incubated with SET protein; settings: four overlapping dodecapeptides, anti-SET antibody, ECL detection
Method: (§1) FIG. 1A and 1B show determination of the binding site of PP2A to SET and vice versa. A) Overlapping dodecapeptides with two amino acid shift covering the whole PP2A protein were bound to a solid support. The membrane was incubated sequentially with SET protein, and anti-SET antibody, followed by a peroxidase-labeled secondary antibody. […] The sequence corresponding to the identified spots is shown. B) Overlapping dodecapeptides with two amino acid shift covering the whole human SET protein were bound to a solid support. The membrane was incubated sequentially with PP2A protein, and anti-PP2A antibody, followed by a peroxidase-labeled secondary antibody. […] The sequence corresponding to the identified spots is shown.
(§2) Overlapping peptides covering the whole human PP2Ac or SET sequence were prepared by automated spot synthesis (Abimed, Langerfeld, Germany) onto an amino-derived cellulose membrane, as described (Frank and Overwin, 1996; Gausepohl et al. 1992). The membranes were blocked, incubated with purified recombinant SET or PP2A protein, after several washing steps, incubated with anti-SET2 (Bethyl Laboratories) or anti-PP2Ac antibody (Santa Cruz), and followed by PO-conjugated secondary antibody. Protein interactions were visualized using ECL system (Pierce). […]

PP2Ac protein = PP2Ac protein (Homo sapiens, UniProt P67775); assay: Binding assay on cellulose-bound overlapping SET peptides incubated with PP2A protein; settings: six overlapping dodecapeptides, anti-PP2Ac antibody, ECL detection
Sequence of PP2Ac protein (P67775 whole entry): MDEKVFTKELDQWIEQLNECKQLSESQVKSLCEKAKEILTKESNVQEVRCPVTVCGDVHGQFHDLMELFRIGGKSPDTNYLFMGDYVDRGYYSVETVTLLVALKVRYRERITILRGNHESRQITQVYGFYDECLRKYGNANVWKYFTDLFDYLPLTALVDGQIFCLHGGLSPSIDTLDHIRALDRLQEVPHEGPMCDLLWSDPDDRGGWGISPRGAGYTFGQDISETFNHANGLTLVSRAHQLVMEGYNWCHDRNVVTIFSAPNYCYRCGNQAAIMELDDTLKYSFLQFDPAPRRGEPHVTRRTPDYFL
Method: as §1, §2

Daudi cell line = assay: Detection of apoptosis by Annexin-V-FITC staining, Daudi; assay type: cell-based, Human; settings: Daudi cells, peptide 100 μM for 24 h, compared to control non treated cells
Method: (§3) Daudi, Raji and Jok 1 cell lines were cultured in the presence or in the absence (control) of the Mut3DPT-PP2A peptide at a concentration of 100 μM for 24 h. Apoptosis was detected by Annexin V-FITC staining and analyzed by flow cytometry. Mut3-DPT-PP2A is VKKKKIKAEIKI-ETVTLLVALKVRYRERIT (SEQ ID NO: 32).
(§4) Human B lymphoblast Daudi cell line, human lymphoblast-like Raji cell line and a Hairy cell leukemia-derived cell line Jok1 were cultured in DMEM (Gibco Life technologies) medium supplemented with 10% FCS.
(§5) Apopotic cells were detected using Annexin-V (-FITC from BD biosciences) as described above.
(§6) The effect of Mut3DPT-PP2Ac peptide treatment was compared to untreated cells. The peptides were used at 100 μM for 24 h.

H1975 cell line = assay: Detection of apoptosis by Annexin-V-FITC staining, H1975; assay type: cell-based, Human; settings: H1975 cells, peptide 100 μM for 24 h, compared to control non treated cells
Method: (§7) H1975 and H1299 cell lines were cultured in the presence or in the absence (control) of the Mut3DPT-PP2Ac peptide at a concentration of 100 μM for 24 h. Apoptosis was detected by Annexin V-FITC staining and analyzed by flow cytometry. Mut3-DPT-PP2A is VKKKKIKAEIKI-ETVTLLVALKVRYRERIT (SEQ ID NO: 32).
(§8) Human non small cell lung carcinoma cell lines H1975 and H1299, as well as breast cancer cell line MDA-MB231 were cultured in DMEM (Gibco Life technologies) medium supplemented with 10% FCS.
(§9) Apopotic cells were detected using Annexin-V (-FITC from BD biosciences) as described by the manufacturer. Briefly, the cells were washed in lx binding buffer, centrifugated and then resuspended in 200 μL of 1× binding buffer containing Annexin V-FITC and propidium iodide (PI). After incubation at room temperature in the dark for 10 min, cells were analyzed with FACS Calibur cytofluometer (BD Biosciences).
(§10) The effect of peptides treatment was compared to untreated cells. The peptides were used at 100 μM for 24 h.

H1299 cell line = assay: Detection of apoptosis by Annexin-V-FITC staining, H1299; assay type: cell-based, Human; settings: H1299 cells, peptide 100 μM for 24 h, compared to control non treated cells
Method: as §7, §8, §9, §10

Raji cell line = assay: Detection of apoptosis by Annexin-V-FITC staining, Raji; assay type: cell-based, Human; settings: Raji cells, peptide 100 μM for 24 h, compared to control non treated cells
Method: as §3, §4, §5, §6

Jok1 cell line = assay: Detection of apoptosis by Annexin-V-FITC staining, Jok1; assay type: cell-based, Human; settings: Jok1 cells, peptide 100 μM for 24 h, compared to control non treated cells
Method: as §3, §4, §5, §6

MDA-MB231 cell line = assay: Detection of apoptosis by Annexin-V-FITC staining, MDA-MB231; assay type: cell-based, Human; settings: MDA-MB231 cells, peptide 100 μM for 24 h, compared to control non treated cells
Method: MDA-MB231 cell line was cultured in the presence or in the absence (control) of the Mut3DPT-SET peptide at a concentration of 100 μM for 24 h. Apoptosis was detected by Annexin V-FITC staining and analyzed by flow cytometry. Mut3-DPT-SET is VKKKKIKAEIKI-[…] (SEQ ID NO: 33).
as §8, §9, §10

Sequence of SET protein (Q01105 1-277 isoform Q01105-2): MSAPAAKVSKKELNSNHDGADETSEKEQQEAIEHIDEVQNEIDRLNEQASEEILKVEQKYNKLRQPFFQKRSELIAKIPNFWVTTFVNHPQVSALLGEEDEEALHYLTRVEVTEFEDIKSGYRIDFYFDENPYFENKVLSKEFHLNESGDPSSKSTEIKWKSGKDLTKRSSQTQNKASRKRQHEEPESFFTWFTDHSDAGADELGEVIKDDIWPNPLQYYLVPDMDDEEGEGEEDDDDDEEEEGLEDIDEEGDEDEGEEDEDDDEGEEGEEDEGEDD

binding of SET protein to cellulose-bound PP2Ac sequence (SET protein): bound by SET protein
Substance: ETVTLLVALKVRYRERIT (Synthetic peptide PP2Ac) [SEQ ID NO: 1]

binding of PP2Ac protein to cellulose-bound SET sequence (PP2Ac protein): bound by PP2Ac protein
Substance: PSSKSTEIKWKSGKDLTKRSSQ (Synthetic peptide SET) [SEQ ID NO: 2]

Substance: VKKKKIKAEIKI-ETVTLLVALKVRYRERIT (VKKKKIKAEIKIETVTLLVALKVRYRERIT) [Mut3DPT-PP2Ac]
apoptosis (Annexin V-FITC staining, flow cytometry) (Daudi cell line): has an apoptotic effect
apoptosis (Annexin V-FITC staining, flow cytometry) (H1975 cell line): has apoptotic effect
apoptosis (Annexin V-FITC staining, flow cytometry) (H1299 cell line): has apoptotic effect
apoptosis (Annexin V-FITC staining, flow cytometry) (Raji cell line): has an apoptotic effect
apoptosis (Annexin V-FITC staining, flow cytometry) (Jok1 cell line): has an apoptotic effect

Substance: VKKKKIKAEIKI-PSSKSTEIKWKSGKDLTKRSSQ (VKKKKIKAEIKIPSSKSTEIKWKSGKDLTKRSSQ) [Mut3DPT-SET]
apoptosis (Annexin V-FITC staining, flow cytometry) (MDA-MB231 cell line): slight apoptosis increase
